# What was measured:
# Format in all cases: cell-based, human
# [1] = test system: PSMB6 knockdown PC-3 cells; test: MTT assay in PC-3 cells with knockdown of proteasome β1 subunit (PSMB6 siRNA); settings: 72 h treatment, vs negative control cells
# Procedure: (§1) The inhibitive effects of fangchinoline on proliferation of PC-3 cells or LnCap cells was observed by checking cell viability of cells using MTT assay as described before. Briefly, cells were seeded in 96-well plates at a density of 5×10^4 cells/mL for PC-3 cell and 4×10^4 cells/mL for LnCap cells. After overnight culture, the media were changed into fresh media containing various concentrations of fangchinoline or 0.1% DMSO (solvent control) for 24, 48 h or 72 h. Cell viability was evaluated by measuring the mitochondrial-dependent conversion of the yellow tetrazolium salt MTT to purple formazan crystals by metabolic active cells. The optical density (proportional to the number of live cells) was assessed with a Microplate Reader Bio-Rad 550 at 570 nm. IC50 value (half-maximal inhibitory concentration) was calculated by the Logit method.
# Validated siRNAs for PSMB6 (Sigma-Aldrich) were transfected into PC-3 cells by using Lipofectamine RNAiMAX (Invitrogen) according to the manufacturer’s protocol. Scrambled negative control siRNAs (Sigma-Aldrich) were used as negative control. Expression levels of PSMB6 (proteasome β1 subunit) in wide type cells, PSMB6 knockdown cells (cells treated with siRNAs for PSMB6), negative control cells (cells transfected with scrambled negative control siRNAs) were checked using Western blotting assay. […]
# [2] = test system: PC-3 cells with over-expression of proteasome β1 subunit; test: MTT assay in PC-3 cells over-expressing proteasome β1 subunit (PSMB6 plasmid); settings: 24 h, 48 h or 72 h treatment
# Procedure: as §1
# Cells with over-expression of proteasome β1 subunit were obtained by transfection with pcDNA3.1 plasmid encoding full-length human PSMB6 cDNA as described before. For plasmid transfection, 5 × 10^5 cells were seeded into each well of a six-well plate until the cells reached approximately 80% confluence after cultured for 24 h. […]
# [3] = test system: caspase-3, PARP, LC-3B in PC-3 cells; test: Western blotting of apoptosis and autophagy markers in PSMB6 knockdown PC-3 cells; settings: 40 μM, 24 h
# Procedure: (§2) Western blotting assay was conducted as described before. Briefly, an aliquot of protein (100 μg) sample was loaded onto a 12% SDS gel, separated electrophoretically, and transferred to a Nitrocellulose membrane (Bio-Rad). After the membrane was incubated with 10 mM TBS with […] and 5% dehydrated skim milk to block nonspecific protein binding, the membrane was incubated with primary antibodies overnight at 4°C. The primary antibodies (all from Cell Signaling Technology) used were rabbit polyclonal antibody against human IκB-α (#4812, 1:400), Bax (#2772, 1:400), proteasome β1 subunit (PSMB6) (#13267, 1:500), β-actin (#4967, 1:400) and mouse monoclonal antibody against human p27 Kip1 (#3688, 1:400) or ubiquitin (#3936, 1:1000). After TBS washes, blots were then incubated with secondary antibody for 2 h at room temperature at a 1:1000 dilution and then visualized using chemiluminescence (Pierce Biotechnology, Rockford, IL, USA). The secondary antibodies used were HRP-linked goat anti-rabbit IgG (#7074) and HRP-linked horse anti-mouse IgG (#7076), both from Cell Signaling Technology.
# Validated siRNAs for PSMB6 (Sigma-Aldrich) were transfected into PC-3 cells by using Lipofectamine RNAiMAX (Invitrogen) according to the manufacturer’s protocol. Scrambled negative control siRNAs (Sigma-Aldrich) were used as negative control. […]
# [4] = test system: ubiquitinated proteins, IκB-α, Bax, p27 in PC-3 cells; test: Western blotting of ubiquitinated proteins and proteasome substrates in PC-3 cells
# Procedure: as §2
# PC-3 cells = test: Flow cytometric analysis of cell cycle in PC-3 cells; settings: 24 h
# Procedure: The induction of cell cycle arrest and apoptosis by fangchinoline in PC-3 cells was observed by using flow cytometric analysis as described in our previous reports. Briefly, for flow cytometry analysis of cell cycle, cells were collected after treatment, washed with PBS and then fixed with 70% ethanol at 4°C for overnight. After PBS washes, cells were re-suspended in staining buffer (10 mg/mL RNase A and […] propidium iodide in cold PBS) for 30 min in dark at room temperature and then analyzed using FACSCalibur Flow Cytometer. For flow cytometric analysis of apoptosis, Alexa Fluor 488 Annexin V & PI /Dead cell Apoptosis Kit (Invitrogen) was used. Cells were collected after treatment, washed with PBS and then resuspended in binding buffer and then incubated with Annexin V-FITC and propidium iodide for 15 min in dark at room temperature. Then, flow cytometric analysis was conducted and data analysis was performed with CellQuest software.
structure (smiles),measurement,setting,value
COc1ccc2cc1Oc1ccc(cc1)C[C@H]1c3cc(c(OC)cc3CCN1C)Oc1c(O)c(OC)cc3c1[C@H](C2)N(C)CC3 [fangchinoline],Effect of knockdown of proteasome β1 subunit on proliferation inhibition,[1],ameliorated proliferation-inhibiting effects
same,Sensitivity of cells with over-expression of proteasome β1 subunit to cytotoxicity vs wild type and negative control,[2],more sensitive
same,"Effect of knockdown of proteasome β1 subunit on markers of apoptosis (caspase-3, PARP) and autophagy (LC-3B)",[3],ameliorated fangchinoline-induced apoptosis and autophagy
same,"Ubiquitinated IκBα (Ub-IκBα), Ub-p27 and Ub-Bax levels",[4],dose-dependently and time-dependently induced increase
same,Treatment time after which accumulation of ubiquitinated proteins was observed,[4]; 27 μM,1 h
same,Lowest dose at which accumulation of ubiquitinated proteins was observed,[4]; 24 h treatment,8 µM
same,Percentage (%) of cells in G0/G1 phase,PC-3 cells; 5 μM,60.17±1.49%
same,Percentage (%) of cells in G2/M phase,PC-3 cells; 5 μM,11.21±2.45 %
same,Percentage (%) of cells in S phase,PC-3 cells; 5 μM,28.62±2.31%
same,Percentage (%) of cells in G0/G1 phase,PC-3 cells; 8 μM,64.25±1.57 %
same,Percentage (%) of cells in G2/M phase,PC-3 cells; 8 μM,11.99±2.23 %
same,Percentage (%) of cells in S phase,PC-3 cells; 8 μM,23.76±2.77%
same,Percentage (%) of cells in G0/G1 phase,PC-3 cells; 12 μM,63.03±0.73 %
same,Percentage (%) of cells in G2/M phase,PC-3 cells; 12 μM,11.59±1.99 %
same,Percentage (%) of cells in S phase,PC-3 cells; 12 μM,25.37±1.75 %
same,Percentage (%) of cells in G0/G1 phase,PC-3 cells; 18 μM,67.63±3.34 %
same,Percentage (%) of cells in G2/M phase,PC-3 cells; 18 μM,8.88±2.91%
same,Percentage (%) of cells in S phase,PC-3 cells; 18 μM,23.48±2.14 %
same,Percentage (%) of cells in G0/G1 phase,PC-3 cells; 27 μM,75.16±1.95 %
same,Percentage (%) of cells in G2/M phase,PC-3 cells; 27 μM,8.65±1.81%
same,Percentage (%) of cells in S phase,PC-3 cells; 27 μM,16.19±0.63 %
same,Percentage (%) of cells in G0/G1 phase,PC-3 cells; 40 μM,80.14±1.55 %
same,Percentage (%) of cells in G2/M phase,PC-3 cells; 40 μM,7.99±1.43%
same,Percentage (%) of cells in S phase,PC-3 cells; 40 μM,11.88±0.56 %
